Values quoted from earlier work, collected in article PMC8035703, “Effect of Synchronous Versus Sequential Regimens on the Pharmacokinetics and Biodistribution of Regorafenib with Irradiation” (Pharmaceutics, 2021).

Design: method as in PMID 26867886, PMID 28202227, PMID 24971021
Settings: HCC patients who received RT concurrently or sequentially with sorafenib; cited from earlier work

Compound: CNC(=O)c1cc(Oc2ccc(NC(=O)Nc3ccc(Cl)c(C(F)(F)F)c3)cc2)ccn1 [sorafenib]
- Incidence of adverse effects: > 30%
